In paper PMC4404333, “Identification of Selective Inhibitors of the Plasmodium falciparum Hexose Transporter PfHT by Screening Focused Libraries of Anti-Malarial Compounds” (PLoS ONE, 2015):
pEC50, pIC50, pKi: −log10 of the molar value. Where “and” joins values, the source holds several entries; their conditions need not be identical. Equal entries are not always repeated. Where two headings read alike, the source gives them in different places.

Assays:
[1] = Liver microsomes stability assay; format: in vitro ADME, mouse; conditions: both sexes, CD-1, pH 7.4; for CLint scaled at 9.8 μM: intrinsic clearance calculated from in vitro t1/2, mouse liver microsomes; for half-life at 9.8 μM: mouse liver microsomes, read-out: Mouse Metabolic Stability t1/2 (converted)
Description: The microsomal stability assay was carried out as described. […] Each test compound (2.2 μL of 10 mM DMSO solution) was added directly to 1.79 mL of mouse liver microsomal solution and 90 μL was transferred to wells in 96-well plates (0, 0.25, 0.5, 1, 2, and 4 h time points each in triplicate). The NADPH regenerating agent was prepared by mixing 0.113 mL of NADPH regenerating agent solutions A, 0.023 mL of solution B and 0.315 mL of 0.1 M potassium phosphate buffer (pH 7.4) for each tested compound. To each well of the 96-well plate, 22.5 μL of the NADPH regenerating agent was added to initiate the reaction, and the plate was incubated at 37°C for each time point (0, 0.25, 0.5, 1, 2, and 4 h time points each in triplicate). The reaction was quenched by adding 225 μL of cold acetonitrile containing warfarin (4 μg/mL) as internal control to each well. All of the plates were centrifuged at 3220 g for 20 min and the supernatants (100 μL) were transferred to another 96-well plate for analysis on UPLC—MS (Waters Acquity UPLC linked to Waters Acquity Photodiode Array Detector and Waters Acquity Single Quadrupole Mass Detector) on an Acquity UPLC BEH C18 1.7 μm (2.1x50 mm) column by running 90–5% gradient for water (0.1% formic acid) and acetonitrile (0.1% formic acid) in 2 minutes. The area under the single ion recording (SIR) channel for the test compound divided by the area under the SIR for internal control at 0 time concentration was considered as 100% to calculate remaining concentration at each time point. The terminal phase rate constant (ke) was estimated by linear regression of logarithmic transformed concentration versus time, where ke = slope x(-ln10). The half-life t1/2 was calculated as ln2/ke.

[2] = system: P. falciparum strain 3D7 intraerythrocytic forms; parameters: method as in PubChem web site, http://pubchem.ncbi.nlm.nih.gov/; conditions: reported values; ref PubChem web site, http://pubchem.ncbi.nlm.nih.gov/; read-out: EC50 3D7 In vitro; cited from earlier work
PfHT = PfHT (Plasmodium falciparum, UniProt Q7KWJ5); assay: Uptake of [3H] D-glucose by L. mexicana Δlmxgt1-3 null mutants expressing PfHT; format: cell-based; parameters: expressed in transfected cells; host or cells: Leishmania mexicana promastigotes, Δlmxgt1-3 hexose transporter null mutant; conditions: for pKi: linear regression; for Vmax: glucose uptake by PfHT; for mode of inhibition of glucose uptake through PfHT: substrate saturation curves, one-way ANOVA of Vmax and Km; for SIglucose GLUT1/PfHT (Specificity Index, IC50 for GLUT1/IC50 for PfHT): uptake of 100 μM [3H] D-glucose
Sequence of PfHT (Q7KWJ5 whole entry): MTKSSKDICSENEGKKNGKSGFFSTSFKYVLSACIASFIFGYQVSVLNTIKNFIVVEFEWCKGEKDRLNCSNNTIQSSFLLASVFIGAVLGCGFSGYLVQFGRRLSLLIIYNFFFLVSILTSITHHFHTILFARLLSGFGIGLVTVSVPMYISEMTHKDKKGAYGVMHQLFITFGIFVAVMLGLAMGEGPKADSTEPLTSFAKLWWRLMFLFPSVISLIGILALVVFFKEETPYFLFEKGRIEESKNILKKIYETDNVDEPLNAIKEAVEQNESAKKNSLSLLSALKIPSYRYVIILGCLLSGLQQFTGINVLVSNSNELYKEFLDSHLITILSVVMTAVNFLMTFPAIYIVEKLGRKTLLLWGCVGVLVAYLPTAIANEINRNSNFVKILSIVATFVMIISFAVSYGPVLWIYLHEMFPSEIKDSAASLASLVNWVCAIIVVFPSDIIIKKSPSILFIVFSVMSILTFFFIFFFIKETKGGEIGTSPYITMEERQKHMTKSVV
Description: (§1) Glucose uptake assays employed logarithmic phase L. mexicana promastigotes of the Δlmxgt1-3 hexose transporter null mutant strain expressing either PfHT or GLUT1 from an episomal expression vector [17]. Parasites (1x10^7) were resuspended in 100 μL phosphate buffered saline, pH 7.4. Prior to uptake, parasites were pre-incubated for 5 min with inhibitor, and uptake was initiated by adding 100 μL of 200 μM [^3H] D-glucose diluted to 4.0 μCi/mL. Uptake was terminated, typically after 1 min, by centrifuging the parasites through a layer of dibutyl phthalate, as described. Control uptake assays employing [^3H] hypoxanthine, [^3H] uridine, and [^3H] L-proline were performed similarly. Analysis of kinetic data was performed using Graph Pad Prism 4.0b software (Graph Pad).

human GLUT1 = biological target: T1, human GLUT1 (Homo sapiens, UniProt P11166); assay: Uptake of [3H] D-glucose by L. mexicana Δlmxgt1-3 null mutants expressing GLUT1; format: cell-based; parameters: expressed in transfected cells; host or cells: Leishmania mexicana promastigotes, Δlmxgt1-3 hexose transporter null mutant; conditions: inhibition of uptake of 100 μM [3H] D-glucose, 1 min uptake assay
T1 sequence (P11166 1-492): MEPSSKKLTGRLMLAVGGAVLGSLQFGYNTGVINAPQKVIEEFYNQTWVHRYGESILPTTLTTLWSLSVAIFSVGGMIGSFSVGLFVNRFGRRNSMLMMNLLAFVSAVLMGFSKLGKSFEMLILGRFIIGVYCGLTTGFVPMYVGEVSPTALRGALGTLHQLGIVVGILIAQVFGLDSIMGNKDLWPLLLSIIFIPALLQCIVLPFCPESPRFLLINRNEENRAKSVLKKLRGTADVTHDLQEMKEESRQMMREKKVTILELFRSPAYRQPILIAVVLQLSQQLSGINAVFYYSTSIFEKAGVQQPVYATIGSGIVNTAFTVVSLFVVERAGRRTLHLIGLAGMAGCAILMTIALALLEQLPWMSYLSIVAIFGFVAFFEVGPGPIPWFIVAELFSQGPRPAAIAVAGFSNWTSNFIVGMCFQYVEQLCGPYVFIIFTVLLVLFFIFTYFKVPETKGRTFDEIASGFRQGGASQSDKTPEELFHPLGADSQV
Description: as §1

[3] = Kic (Ki for binding of inhibitor to free transporter), from plot of Km/Vmax versus [I]
[4] = Kiu (Ki for binding of inhibitor to substrate-bound transporter), from plot of 1/Vmax versus [I]

COc1cc(Nc2ccc3cc(S(=O)(=O)N4CCCCC4C)ccc3n2)cc(OC)c1OC (stereo not drawn) [Compound 1]
CLint scaled at 9.8 μM [1]: 12.8 L/h/kg
half-life at 9.8 μM [1]: 16.2 min
pEC50 [2]: 5.91
pIC50 (PfHT): 7.41
selective inhibition of PfHT versus GLUT1 (PfHT): 82 fold
pKi (PfHT; [3]): 7.48
pKi (PfHT; [4]): 7.64
Vmax (PfHT; [I] 50 nM): 280 ± 15 pmol per 10^7 cells per min
Vmax (PfHT; [I] 100 nM): 131 ± 4 pmol per 10^7 cells per min
mode of inhibition of glucose uptake through PfHT (PfHT): non-competitive inhibitors
SIglucose GLUT1/PfHT (Specificity Index, IC50 for GLUT1/IC50 for PfHT) (PfHT): 82
pIC50 (human GLUT1): 5.49 and < 5.52

CC1CCCCN1S(=O)(=O)c1ccc2nc(Nc3ccccc3)ccc2c1 (stereo not drawn) [Compound 10]
CLint scaled at 9.8 μM [1]: 26.3 L/h/kg
half-life at 9.8 μM [1]: 7.8 min
pIC50 (PfHT; read-out: IC50 PfHT, inhibition of uptake of 100 μM [3H] D-glucose, 1 min uptake assay): < 5.00
pIC50 (human GLUT1): < 5.00

CC1CCCCN1S(=O)(=O)c1ccc2nc(Nc3ccc(C#N)cc3)ccc2c1 (stereo not drawn) [Compound 12]
CLint scaled at 9.8 μM [1]: 10.7 L/h/kg
half-life at 9.8 μM [1]: 19.2 min
pIC50 (PfHT): 5.57
SIglucose GLUT1/PfHT (Specificity Index, IC50 for GLUT1/IC50 for PfHT) (PfHT): 0.92
pIC50 (human GLUT1): 5.60

CC1CCCCN1S(=O)(=O)c1ccc2nc(Nc3cccc(C#N)c3)ccc2c1 (stereo not drawn) [Compound 13]
CLint scaled at 9.8 μM [1]: 40.8 L/h/kg
half-life at 9.8 μM [1]: 4.8 min
pIC50 (PfHT): 6.49
lower affinity for PfHT than Compound 1 (PfHT): 8 fold
selective inhibition of PfHT versus GLUT1 (PfHT): 94 fold
pKi (PfHT; [3]): 6.48
pKi (PfHT; [4]): 6.59
Vmax (PfHT; [I] 600 nM): 245 ± 67 pmol per 10^7 cells per min
Vmax (PfHT; [I] 1000 nM): 93 ± 53 pmol per 10^7 cells per min
mode of inhibition of glucose uptake through PfHT (PfHT): non-competitive inhibitors
SIglucose GLUT1/PfHT (Specificity Index, IC50 for GLUT1/IC50 for PfHT) (PfHT): 94
pIC50 (human GLUT1): 4.52
